Source: patent publication US5654296A, “Condensed heterocyclic compounds, their production and use” (priority 1994, dated 1997)
Where a name gives a salt, the structure may show the parent alone.

Key:
serotonine (5-HT) uptake = experiment: Activity to inhibit serotonine (5-HT) uptake; assay type: biochemical; settings: rat whole brain; 3H-5-HT 10 nM; 37° C.; pH 7.4; read-out: 5-HT uptake inhibitory activity (IC50 μM)
Procedure: (a) Activity to inhibit serotonine (5-HT) uptake
(§1) The experiment was performed in accordance with the method of Hyttel et al. [Psychopharmacology 60, 13, 1978]. The whole brain of a rat was homogenized in 40 volumes of ice-cooled 0.32M sucrose solution containing 10 μM pargyline and, then, centrifuged (600×G) for 10 minutes. The supernatant was centrifuged (2500×G) for 55 minutes to provide a pellet. This pellet was suspended in Krebs-Ringer-phosphate buffer (pH 7.4; 122 mM NaCl, 4.82 mM KCl, 0.972 mM CaCl2, 1.21 mM MgSO4, 12.7 mM Na2 HPO4, 2.97 mM NaH2 PO4, 0.162 mM EDTA sodium, 10 mM glucose, 1.14 mM ascorbic acid) saturated with a mixed gas (95% O and 5% CO2). To 900 μl of this suspention was added a solution of the test drug (10 μl) in DMSO and the mixture was incubated at 37° C. for 5 minutes. Then, 100 μl of ^3 H-5-HT (final concentration 10 nM) was added and the mixture was further incubated at 37° C. for 5 minutes. This reaction mixture was filtered under suction using a GF/B filter and the filter was washed with 4 ml of the above-mentioned buffer. The radioactivity on the filter was measured by the liquid scintillation method.
The amount of the drug which caused a 50% decrease in 5-HT uptake is shown as 50% inhibitory activity (IC50) in Table 42.

[1] = tested on: norepinephrine (NE) uptake; experiment: Activity to inhibit norepinephrine (NE) uptake; assay type: biochemical; settings: rat cerebral cortex; 3H-NE; read-out: NE uptake inhibitory activity (IC50 μM)
Procedure: as §1
(b) Activity to inhibit norepinephrine (NE) uptake
Using the rat cerebral cortex and, as the substrate, ^3 H-NE, an experiment was performed by otherwise the same procedure as described for 5-HT.

[2] = tested on: 45Ca2+ uptake (veratrine-stimulated, rat cerebral cortex crude synaptosome fraction); experiment: 45Ca2+ uptake inhibition experiment; assay type: biochemical; settings: 30 μM veratrine, 37° C., 10 minutes, read-out: 45Ca2+ uptake inhibitory activity (IC50 μM)
Procedure: The rat cerebral cortex was homogenized in 10 volumes of ice-cooled 0.32M sucrose solution to prepare a crude synaptosome fraction (100×G, 10 min., 12000×G, 20 min.). […] To 900 μl of the homogenate was added a DMSO solution of the test drug (10 μl). The mixture was incubated at 37° C. for 10 minutes, followed by addition of 100 μl of a veratrine solution (containing 0.18 uci ^45 Ca^2+) at a final veratrine concentration of 30 μM. The mixture was incubated at 37° C. for 10 minutes, quenched with 4 ml of ice-cooled EGTA solution (120 mM sodium chloride, 5 mM potassium chloride, 5 mM EGTA, pH=7.5) and suction-filtered using a GF/B filter. The filter was washed twice with 4 ml each of a washing solution (132 mM sodium chloride, 5 mM potassium chloride, 1.3 mM magnesium chloride, 1.2 mM calcium, chloride, 20 mM Tris base, pH 7.5) and the radioactivity of […] was measured by the liquid scintillation method.
The ^45 Ca^2+ uptake inhibition rate was calculated by means of the following equation. [formula] A: The ^45 Ca^2+ uptake after 10 minutes' stimulation with 30 μM veratrine in the presence of the test drug
B: The ^45 Ca^2+ uptake in the absence of veratrine and in the presence of the test drug
C: The ^45 Ca^2+ uptake after 10 minutes' stimulation with 30 μM veratrine in the absence of the test drug
D: The ^45 Ca^2+ uptake in the absence of the test drug and in the absence of veratrine

[3] = target: T1, GnRH receptors (bovine pituitary anterior lobe membrane fraction) (Bos taurus, UniProt P32236); experiment: 125I-leuprolerin GnRH receptor binding inhibition test, bovine pituitary anterior lobe membrane fraction; settings: 4° C., 90 minutes, read-out: Binding inhibitory activity (IC50 μM) Bovine
T1 construct: A bovine pituitary anterior lobe membrane fraction containing GnRH receptors was prepared; from tissue; host or cells: bovine pituitary anterior lobe, membrane fraction
T1 sequence (P32236 1-328): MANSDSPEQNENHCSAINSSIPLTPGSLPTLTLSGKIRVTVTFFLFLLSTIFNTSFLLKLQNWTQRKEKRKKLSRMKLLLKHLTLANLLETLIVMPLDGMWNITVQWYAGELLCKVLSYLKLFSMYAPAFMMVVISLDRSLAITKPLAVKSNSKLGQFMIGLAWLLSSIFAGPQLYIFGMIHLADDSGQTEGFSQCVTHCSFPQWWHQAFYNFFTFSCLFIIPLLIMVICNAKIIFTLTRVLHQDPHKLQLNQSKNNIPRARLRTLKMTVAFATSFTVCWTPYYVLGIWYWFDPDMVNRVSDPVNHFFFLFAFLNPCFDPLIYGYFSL
Procedure: Ten (10) μl of 3×10^4 M aqueous leuprolerin solution and 10 μl of 0.01 mg/ml lactoperoxidase were taken in a tube and 10 μl of Na^125 I solution (37 MBq) was added. After stirring, 10 μl of 0.001% H2 O2 was added and the reaction was conducted at room temperature for 20 minutes. Then, 700 μl of 0.05% TFA solution was added to the tube to terminate the reaction and the reaction mixture was purified by reverse-phase HPLC. The HPLC conditions are shown below. ^125 I-leuprolerin was eluted after a retention time of 26-27 minutes. (C) Preparation of a Bovine Pituitary Anterior Lobe Membrane Fraction Containing GnRH Receptors A bovine pituitary anterior lobe membrane fraction containing GnRH receptors was prepared by the same procedure as described under (B). However, a 10,000×G centrifugation supernatant was recentrifuged at 100,000×G for 1 hour to provide the membrane fraction pellet. […] For the rat and human membrane fractions prepared in (B) and (D), each membrane fraction was diluted with assay buffer to a concentration of 200 μg/ml and distributed in 188 μl portions into tubes. As to the bovine membrane fraction prepared in (C), the membrane fraction was diluted with assay buffer to 750 μg/ml and distributed in 188 μl portions into tubes. […] Where the rat or bovine pituitary anterior lobe membrane fraction was used, the reaction was conducted at 4° C. for 90 minutes. Where the membrane fraction of the CHO with human GnRH receptors expressed was used, the reaction was carried out at 25° C. for 60 minutes. […] After filtration, the radioactivity of ^125 I-leuprolerin remaining on the filter was measured with a γ-counter. The expression (TB-SB)/(TB-NSB)×100 (where SB=radioactivity with the compound added, TB=maximum bound radioactivity, NSB=nonspecifically bound radioactivity) was calculated to find the binding inhibition rate of each test compound.

[4] = target: T2, GnRH receptors (rat pituitary anterior lobe membrane fraction) (Rattus norvegicus, UniProt P30969); experiment: 125I-leuprolerin GnRH receptor binding inhibition test, rat pituitary anterior lobe membrane fraction; settings: 4° C., 90 minutes, read-out: Binding inhibitory activity (IC50 μM) Rat
T2 construct: the anterior lobe of the pituitary gland was isolated and washed with ice-cooled homogenate buffer; from tissue; host or cells: anterior lobe of the pituitary gland, male Wistar rats (8 weeks old), membrane fraction
T2 sequence (P30969 1-327): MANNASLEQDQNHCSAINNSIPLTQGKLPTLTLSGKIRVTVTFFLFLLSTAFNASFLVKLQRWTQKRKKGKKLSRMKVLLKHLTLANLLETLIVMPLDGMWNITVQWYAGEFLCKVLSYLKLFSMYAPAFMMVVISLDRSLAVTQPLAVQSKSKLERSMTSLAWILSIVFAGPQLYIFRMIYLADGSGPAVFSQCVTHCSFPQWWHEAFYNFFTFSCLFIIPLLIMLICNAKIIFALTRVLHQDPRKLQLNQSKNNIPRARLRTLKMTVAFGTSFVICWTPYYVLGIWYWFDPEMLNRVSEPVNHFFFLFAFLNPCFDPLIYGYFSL
Procedure: Ten (10) μl of 3×10^4 M aqueous leuprolerin solution and 10 μl of 0.01 mg/ml lactoperoxidase were taken in a tube and 10 μl of Na^125 I solution (37 MBq) was added. After stirring, 10 μl of 0.001% H2 O2 was added and the reaction was conducted at room temperature for 20 minutes. Then, 700 μl of 0.05% TFA solution was added to the tube to terminate the reaction and the reaction mixture was purified by reverse-phase HPLC. The HPLC conditions are shown below. ^125 I-leuprolerin was eluted after a retention time of 26-27 minutes. (B) Preparation of a Rat Pituitary Anterior Lobe Membrane Fraction Containing GnRH Receptors […] The pituitary tissue was floated in 2 ml of the homogenate buffer and homogenized using a Polytron homogenizer. The homogenate was centrifuged at 700×G for 15 minutes. The supernatant was taken in an ultracentrifuge tube and centrifuged at 100,000×G for 1 hour to provide a membrane fraction pellet. […] The membrane fraction recovered as a pellet was resuspended in 10 ml of assay buffer, divided into portions, preserved at -80° C. and thawed when needed. […] For the rat and human membrane fractions prepared in (B) and (D), each membrane fraction was diluted with assay buffer to a concentration of 200 μg/ml and distributed in 188 μl portions into tubes. As to the bovine membrane fraction prepared in (C), the membrane fraction was diluted with assay buffer to 750 μg/ml and distributed in 188 μl portions into tubes. […] Where the rat or bovine pituitary anterior lobe membrane fraction was used, the reaction was conducted at 4° C. for 90 minutes. Where the membrane fraction of the CHO with human GnRH receptors expressed was used, the reaction was carried out at 25° C. for 60 minutes. […] After filtration, the radioactivity of ^125 I-leuprolerin remaining on the filter was measured with a γ-counter. The expression (TB-SB)/(TB-NSB)×100 (where SB=radioactivity with the compound added, TB=maximum bound radioactivity, NSB=nonspecifically bound radioactivity) was calculated to find the binding inhibition rate of each test compound.

SMILES | IC50 (serotonine (5-HT) uptake) | IC50 [1] | IC50 [2] | IC50 [3] | IC50 [4]
c1ccc(C2(CCN3CCCCC34CCc3ccccc3C4)COCc3ccccc32)cc1 (centres unmarked) [Example I-12, 3,4-Dihydro-1'-[2-(4-phenylisochroman-4-yl)ethyl]spiro[naphthalene-2(1H),2'-piperidine] hydrochloride] | 0.022 µM | 0.015 µM | 0.85 µM | – | –
COc1ccc(CCNCCCC2(c3ccccc3)COCc3ccccc32)cc1OC (centres unmarked) [Example I-25, 4-[3-(3,4-Dimethoxyphenethylamino)propyl]-4-phenylisochroman hydrochloride] | 0.14 µM | 0.39 µM | 1.19 µM | – | –
Fc1ccc(N2CCN(CCCC3(c4ccccc4)COCc4ccccc43)CC2)cc1 (centres unmarked) [Example I-30, 4-{3-[4-(p-Fluorophenyl)piperazin-1-yl]propyl}-4-phenylisochroman dihydrochloride] | 0.068 µM | 0.59 µM | 1.59 µM | – | –
c1ccc(C2CCN(CCCC3(c4ccccc4)COCc4ccccc43)CC2)cc1 (centres unmarked) [Example I-33, 4-[3-(4.-Phenylpiperidino)propyl]-4-phenylisochroman hydrochloride] | 0.27 µM | 0.55 µM | 0.69 µM | – | –
COc1cc2c(cc1OC)CC1(CCCCN1CCCC1(c3ccccc3)COCc3ccccc31)CC2 (centres unmarked) [Example I-37, 3,4-Dihydro-6,7-dimethoxy-1'-[3-(4-phenylisochroman-4-yl)propyl]spiro[naphthalene-2(1H),2'-piperidine] hydrochloride] | – | – | – | 6 µM | 0.03 µM
Cc1cccc(CNCCCC2(c3ccccc3)COCc3ccccc32)c1 (centres unmarked) [Example I-46, 4-[3-(m-Methylbenzylamino)propyl]-4-phenylisochroman hydrochloride] | – | – | – | 14 µM | 0.5 µM
O=C1c2ccsc2CCC12CCCCN2CCCC1(c2ccccc2)COCc2ccccc21 (centres unmarked) [Example I-47, 6,7-Dihydro-1'-[3-(4-phenylisochroman-4-yl)propyl]spiro[4-oxobenzo(b)thiophene-5(4H),2'-piperidine] hydrochloride] | – | – | – | 7 µM | 0.3 µM
COc1ccc2c(c1)CCC1(CCCCN1CCCC1(c3ccccc3)COCc3ccccc31)C2=O (centres unmarked) [Example I-48, 3,4-Dihydro-6-methoxy-1'-[3-(4-phenylisochroman-4-yl)propyl]spiro[1-oxonaphthalene-2-(1H),2'-piperidine] hydrochloride] | – | – | – | 10 µM | 0.4 µM
O=C1c2ccccc2CCC12CCCCN2CCCC1(c2ccccc2)COCc2ccccc21 (centres unmarked) [Example I-49, 3,4-Dihydro-1'-[3-(4-phenylisochroman-4-yl)propyl]spiro[1-oxonaphthalene-2(1H),2'-piperidine] hydrochloride] | – | – | – | 10 µM | 0.5 µM
COc1cc2c(cc1OC)CC1(CCCCN1CCCC1(c3ccc(F)cc3)COCc3ccccc31)CC2 (centres unmarked) [Example I-50, 3,4-Dihydro-6,7-dimethoxy-1'-{3-[4-(p-fluorophenyl)isochroman-4-yl]propyl}spiro[naphthalene-2(1H),2'-piperidine] hydrochloride] | – | – | – | 8 µM | 0.08 µM
c1ccc(C2(CCCNC3CCCc4ccccc43)COCc3ccccc32)cc1 (centres unmarked) [Example I-51, 4-Phenyl-4-{3-[1-(1,2,3,4-tetrahydronaphthylamino)]propyl]isochroman hydrochloride] | – | – | – | 10 µM | 0.5 µM
CN(CCCC1(c2ccccc2)CN(C(=O)Nc2ccccc2)Cc2ccccc21)Cc1ccccc1 (centres unmarked) [IV-19, 4-[3-(N-Benzyl-N-methylamino)propyl]-4-phenyl-2-phenylcarbamoyl-1,2,3,4-tetrahydroisoquinoline hydrochloride] | 0.23 µM | 0.56 µM | 0.95 µM | – | –
